Values quoted from earlier work as cited in patent US20050209315A1, “Bioavailable nutritional supplement and method of treatment of malabsorption” (priority 2004, published 2005).

Settings: relative to alpha tocopherol

Q: For alpha-tocotrienol [Alpha tocotrienol], which “more antioxidant activity than alpha tocopherol” value is on record?
A: 40-60%
